Drawing on patent publication US10385097B2, “Ether compounds for treatment of medical disorders” (Achillion Pharmaceuticals, Inc., priority 2015, dated 2019), this text covers IC50 for 10 molecules.

pIC50: −log10 of the molar value. Some results are limits rather than exact numbers.

In the first assay the target is T1, Human Factor D (Homo sapiens, UniProt P00746).
T1 construct: purified from human serum; purchased Complement Technology, Inc; host or cells: human serum (natural protein, not recombinant)
T1 sequence (P00746 26-253): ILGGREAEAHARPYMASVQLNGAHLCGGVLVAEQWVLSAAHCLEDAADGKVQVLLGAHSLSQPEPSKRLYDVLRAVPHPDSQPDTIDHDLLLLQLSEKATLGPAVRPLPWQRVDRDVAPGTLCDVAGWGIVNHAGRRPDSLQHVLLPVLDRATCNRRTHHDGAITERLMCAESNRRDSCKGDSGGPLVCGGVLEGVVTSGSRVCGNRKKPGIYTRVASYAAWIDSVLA
Kind of assay: Human Factor D Assay. It is filed as biochemical. The settings on record: Table 2; Human Factor D 80 nM, substrate Z-L-Lys-SBzl; read-out: IC50. On the procedure:
Example 8. Human Factor D Assay
Human Factor D (purified from human serum, Complement Technology, Inc.) at 80 nM final concentration is incubated with test compound at various concentrations for 5 minutes at room temperature in 50 mM Tris, 1M NaCl, pH 7.5. A synthetic substrate Z-L-Lys-SBzl and DTNB (Ellman's reagent) are added to final concentrations of 100 μM each. Absorbance at 405 nm (A405) is recorded at 30 second intervals for 30 minutes using a microplate spectrophotometer. IC50 values are calculated by nonlinear regression of complement Factor D reaction rates as a function of test compound concentration.
With `CC(=O)c1cn(CC(=O)N2C[C@H](F)C[C@H]2C(=O)Nc2cccc(-c3ccccc3Cl)c2F)c2ccc(O[C@@H]3CO[C@H]4[C@@H]3OC[C@H]4O)cc12` [Compound 44], the pIC50 – broadly, −log10 of the IC50, conventionally taken in molar units – was greater than 6.00. Same read-out and setting: the result for `CC(=O)c1cn(CC(=O)N2C[C@H](F)C[C@H]2C(=O)Nc2cccc(Br)n2)c2ccc(O[C@@H]3CO[C@H]4[C@@H]3OC[C@H]4O)cc12` [Compound 45, (2S,4R)-1-(2-(3-acetyl-5-((3R,3aR,6R,6aR)-6-hydroxyhexahydrofuro[3,2-b]furan-3-yloxy)-1H-indol-1-yl)acetyl)-N-(6-bromopyridin-2-yl)-4-fluoropyrrolidine-2-carboxamide] reads greater than 6.00; that for `CO[C@@H]1CO[C@H]2[C@@H]1OC[C@H]2Oc1ccc2c(c1)c(C(C)=O)cn2CC(=O)N1C[C@H](F)C[C@H]1C(=O)Nc1cccc(-c2ccccc2Cl)c1F` [Compound 46, (2S,4R)-1-(2-(3-acetyl-5-((3R,3aR,6R,6aR)-6-methoxyhexahydrofuro[3,2-b]furan-3-yloxy)-1H-indol-1-yl)acetyl)-N-(2′-chloro-2-fluorobiphenyl-3-yl)-4-fluoropyrrolidine-2-carboxamide], greater than 6.00; that for `CO[C@@H]1CO[C@H]2[C@@H]1OC[C@H]2Oc1ccc2c(c1)c(C(C)=O)cn2CC(=O)N1C[C@H](F)C[C@H]1C(=O)Nc1cccc(Br)n1` [Compound 47, (2S,4R)-1-(2-(3-acetyl-5-((3R,3aR,6R,6aR)-6-methoxyhexahydrofuro[3,2-b]furan-3-yloxy)-1H-indol-1-yl)acetyl)-N-(6-bromopyridin-2-yl)-4-fluoropyrrolidine-2-carboxamide], greater than 6.00.

Staying with this assay, now noted: Table 3; Human Factor D 80 nM, substrate Z-L-Lys-SBzl; read-out: (IC50 (Stars)).
As to `CC(=O)c1cn(CC(=O)N2C[C@H](F)C[C@H]2C(=O)NCc2ccccc2)c2ccc(OCS(=O)(=O)NC(C)(C)C)cc12` [Compound 129, (2S,4R)-1-(2-(3-Acetyl-5-((N-(tert-butyl)sulfamoyl)methoxy)-1H-indol-1-yl)acetyl)-N-benzyl-4-fluoropyrrolidine-2-carboxamide], the negative logarithm of the IC50 (pIC50) was greater than 6.00. The same measure, in the same setting: then `CC(=O)c1cn(CC(=O)N2C[C@H](F)C[C@H]2C(=O)NCc2ccccc2)c2ccc(OCS(N)(=O)=O)cc12` [Compound 130, (2S,4R)-1-(2-(3-Acetyl-5-(sulfamoylmethoxy)-1H-indol-1-yl)acetyl)-N-benzyl-4-fluoropyrrolidine-2-carboxamide], with greater than 6.00; and `CC(=O)c1cn(CC(=O)N2C[C@H](F)C[C@H]2C(=O)NCCc2ccccc2)c2ccc(OCS(=O)(=O)NC(C)(C)C)cc12` [Compound 132, (2S,4R)-1-(2-(3-Acetyl-5-((N-(tert-butyl)sulfamoyl)methoxy)-1H-indol-1-yl)acetyl)-4-fluoro-N-phenethylpyrrolidine-2-carboxamide], with greater than 6.00; and `CC(=O)c1cn(CC(=O)N2C[C@H](F)C[C@H]2C(=O)NCCc2ccccc2)c2ccc(OCS(N)(=O)=O)cc12` [Compound 133, (2S,4R)-1-(2-(3-Acetyl-5-(sulfamoylmethoxy)-1H-indol-1-yl)acetyl)-4-fluoro-N-phenethylpyrrolidine-2-carboxamide], with 5.00 to 6.00. Same read-out and setting: then `CC(=O)c1cn(CC(=O)N2C[C@H](F)C[C@H]2C(=O)NCCCc2ccccc2)c2ccc(OCS(=O)(=O)NC(C)(C)C)cc12` [Compound 135, (2S,4R)-1-(2-(3-Acetyl-5-((N-(tert-butyl)sulfamoyl)methoxy)-1H-indol-1-yl)acetyl)-4-fluoro-N-(3-phenylpropyl)pyrrolidine-2-carboxamide], with greater than 6.00. The same measure, in the same setting: then `CC(=O)c1cn(CC(=O)N2C[C@H](F)C[C@H]2C(=O)NCCCc2ccccc2)c2ccc(OCS(N)(=O)=O)cc12` [Compound 136, (2S,4R)-1-(2-(3-Acetyl-5-(sulfamoylmethoxy)-1H-indol-1-yl)acetyl)-4-fluoro-N-(3-phenylpropyl)pyrrolidine-2-carboxamide], with greater than 6.00.
